Consider two compounds from patent EP1452605A1, “Method for determining antiviral activity” (Universiteit Utrecht Holding B.V., priority 2003, dated 2004).

In general, IC50 refers to the point on the concentration scale where inhibition reaches its midpoint.

“And” between values parts separate entries of the source, which are not always exact repeats. Equal values may be shown once.

Data set [1] concerns FIV UT-113. Description: FIV infection of CrFK cells, FIV p24 ELISA. The class given is cell-based, Feline immunodeficiency virus (FIV). Conditions: 100 to 0.024 µM, p24 after 6 days. How it is done:
After 6 days of incubation FIV replication was measured by quantification of the p24 viral core antigen in the cell culture supernatant by an FIV p24 enzyme-linked immunoabsorbent assay as described previously ^19.
(In an ELISA, binding on a coated surface is turned into a signal by an enzyme label.)

Data set [2] concerns CrFK cells. Description: Cellular viability assay (MTT) of CrFK cells. It counts as cell-based, feline. The conditions noted are these: concentrations used in the FIV assay.
The subject of data set [3] is Mouse L cells. Nature of the data set: Cytotoxicity in mouse L cells by microscopic observation. The conditions noted are these: mouse L cells, all tested concentrations. How it is done:
(§1) After 24h, the cytopatic effect (CPE) of the virus and the cytotoxicity of the compounds were scored by microscopic observation.

The subject of data set [4] is MHV-A59. Nature of the data set: MHV infection of mouse L cells, CPE scoring. Conditions: 24h, 143 to 0.009 µM. The class given is cell-based, Mouse hepatitis virus (MHV). How it is done:
as §1

In data set [5] the test system is HIV-1Ba-L. Description: Combination of HIV-1 inhibitors in HIV-1Ba-L infected PBMC (checker board, CalcuSyn).
Method: After 7 days of incubation, p24 antigen in culture supernatant was quantified by ELISA and cellular viability was assessed by a cytotoxicity assay. fa was calculated for each drug combination after p24 quantification. Using the CalcuSyn program, dose-effect curves were plotted for each drug combination, i.e., each dose was plotted against the corresponding fa value. […] CI values were calculated using the mutually nonexclusive assumption.
Data set [6] concerns HIV-1HXB2. Description: Reverse transcription assay in PBMC: (-) strong stop and gag DNA by real-time Taqman PCR. It counts as cell-based. The conditions noted are these: 10h after infection; for reduction in gag cDNA copies: PBMC. How it is done:
PBMC infection with HIV-1Ba-L or HIV-1HXB2 for real-time Taqman PCR The ability of HIV-1Ba-L to enter the cells in the presence of APHS was tested using DS as positive control (entry assay). The amount of HIV-1HXB2 reverse transcription products in the presence of APHS was also tested, using AZT as positive control (reverse transcription assay). Before infection, PHA-stimulated PBMC from the PBMC batch were pre-incubated with different concentrations of APHS, DS or AZT for 24 h. Afterwards, cells were washed and 1 × 10^6 PBMC were incubated for 40 min with HIV-1Ba-L or HIV-1HXB2 at an M.O.I. of 0.0025 and with appropriate concentrations of APHS, AZT, DS or medium in the presence of 1/20 concentrated M buffer (Roche) and 4U/ml DNase (Roche) to digest possible contaminating viral DNA associated with the virions. Afterwards PBMC were washed and resuspended in medium with or without compounds. Cells were treated with 1 mg/ml Pronase (Roche) to remove virus particles bound to the cells. […] At different time points, 1.0 × 10^6 cells were added to 900 µl Nuclisens lysis buffer (Organon Teknika, Boxtel, The Netherlands) containing 40 µl silica to bind total nucleic acids (Nuclisens isolation kit). For the entry assay, samples were collected 2h after the start of the infection and for the reverse transcription assays samples were collected 2, 7 and 10h after the start of the infection.
HIV RNA and DNA were extracted from samples of infected cells according to a method described before ^23. Briefly, after 10 min of mixing the silica and lysis buffer, tubes were shortly centrifuged at 13,000 rpm and supernatant was discarded. Free non-nucleic acid components were removed by washing the silica particles twice with Nuclisens washing buffer, twice with 70 % ethanol and once with acetone. The silica pellet was dried for 10 min at 56 °C. Total nucleic acids were eluted by resuspending the pellet in 100 µl nuclease-free water. After mixing the tubes for 10 min at 56 °C, tubes were shortly centrifuged and the supernatant was transferred to a new tube and stored at -20 °C.
Real-time Taqman PCR is based on cleavage of a probe, hybridized to the target sequence by 5'-3' nuclease activity of Taq DNA polymerase during amplification, as described previously ^24. Briefly, target sequence-specific forward and reverse primers prime the amplification reaction. The probe contains a reporter dye at the 5' end and a quencher dye at the 3' end. When both dyes are attached to the probe, reporter dye emission is quenched. The probe is displaced from the target during each polymeration cycle. Once separated from the quencher, the reporter dye emits its characteristic fluorescence, which can then be measured. The amount of fluorescence measured is proportional to the amount of PCR product.
HIV-1 gag cDNA and HIV-1 (-) strong stop and gag DNA were amplified and quantified by real-time Taqman PCR as described elsewhere ^25. Sets of primers/probes were designed according to a previous study by Zack and colleagues ^26. To quantify the amount of gag RNA in the samples, a cDNA standard curve was prepared from five-fold dilutions of extracted RNA from an HXB2 viral batch, of which the RNA amount was previously determined. To quantify (-) strong stop and gag DNA in the samples, a DNA standard curve was prepared from five-fold dilutions of DNA extracted from U1 cells, which contain two copies of the HIV-1HXB2 genome per cell. Albumin was also quantified and used for normalization of all samples.

Data set [7] has as its system HIV-1Ba-L. Description: HIV-1 infection of PBMC, p24-core antigen ELISA. The class given is cell-based. The conditions noted are these: Human immunodeficiency virus 1, PBMC; read-out: IC50. How it is done:
To correct for the input virus, an extra control consisting of medium containing the same amount of input virus as added to the cells was included in the experiment. The amount of p24 in this control was subsequently subtracted from the p24 values of the samples in order to obtain the exact amount of p24 produced by the cells. p24-core antigen quantification by ELISA After 2 or 7 days incubation, samples of the supernatants were collected, inactivated by addition of Empigen (Calbiochem, La Jolla, CA, USA) and by heat inactivation at 56°C for 30 min. p24-core antigen concentration was determined by an enzyme linked immunoabsorbent assay (ELISA) (AMPAK™, DAKO, Cambridgeshire, UK) as described previously ^18,19. The optical density values were converted into p24 concentration (ng/ml) with the use of a calibration curve made by serial dilutions of recombinant p24 protein (NIBSC, UK) that was submitted to the same treatment as the samples.
(§2) To correct for the input virus, an extra control consisting of medium containing the same amount of input virus as added to the cells was included in the experiment. The amount of p24 in this control was subsequently subtracted from the p24 values of the samples in order to obtain the exact amount of p24 produced by the cells.
After 7 days incubation, samples of the supernatants were collected, inactivated by addition of Empigen (Calbiochem, La Jolla, CA, USA) and by heat inactivation at 56°C for 30 min. p24-core antigen concentration was determined by an ELISA (AMPAK™, DAKO, Cambridgeshire, UK) as described previously ^39,40. The optical density values were converted into p24 concentration (ng/ml) with the use of a calibration curve made by serial dilutions of recombinant p24 protein (NIBSC, UK) that was submitted to the same treatment as the samples.
as §2
After 7 days incubation, samples of the supernatants were collected, inactivated by addition of Empigen (Calbiochem, La Jolla, CA, USA) and by heat inactivation at 56°C for 30 min. p24-core antigen concentration was determined by an enzyme linked immunoabsorbent assay (ELISA) (AMPAK™, DAKO, Cambridgeshire, UK) as described previously 15,16. The optical density values were converted into p24 concentration (ng/ml) with the use of a calibration curve made by serial dilutions of recombinant p24 protein (NIBSC, UK) that was submitted to the same treatment as the samples.

The nature of data set [8]: in vitro. Conditions: human.

Turning to `CCCCCSc1ccccc1O` [APHS-d, phenol, 2-(pentylthio)], the “effect on FIV replication” value in data set [1] is given as “did not show any effect”. In addition, the “cytotoxicity for CrFK cells” value in data set [2] was “not cytotoxic”. For the same compound, the “cytotoxicity by microscopic observation” value in data set [3] was “not cytotoxic”. In data set [4], the “effect on MHV replication (CPE)” value is reported as “no effect”.

With `Cc1cn([C@H]2C[C@H](N=[N+]=[N-])[C@@H](CO)O2)c(=O)[nH]c1=O` [AZT, zidovudine], the IC50 in data set [5] (Human immunodeficiency virus 1, PBMC, 168 h, read-out: IC50 Drug, drug alone, head over this column prints Combination) was 3 nM; in data set [5] (read-out: IC50 Combination Drug, drug in combination with APHS at the equipotent ratio (1 : 1)) it was 2 nM; in data set [7], 3 nM. For the same compound, the “reduction in gag cDNA copies” value in data set [6] (5 nM AZT) was 35% and 40%; in data set [6] (1000 nM AZT), 90%. Besides, the “(-) strong stop DNA copy numbers versus untreated PBMC” value in data set [6] (10 or 30 µM APHS, 5 or 1000 nM AZT) is given as “did not show a significant decrease”. Besides, the CC50 at 7 days in data set [8] was greater than 80000 nM.
